Earlier results as cited in patent US20210361677A1, “DOSING METHODS FOR TREATING INFLAMMATORY BOWEL CONDITIONS” (priority 2020, published 2021).

Details: enema by prior methods, two patients, FIG. 1

systemic (plasma) levels of 5-ASA after bowel movements: dramatically lower
SMILES: Nc1ccc(O)c(C(=O)O)c1 [5-ASA, 5-aminosalicylic acid]
